Test results as given in US7138491B2, “Carboline-3-carboxylic acid modified related sequences of Ala-Arg-Pro-Ala-Lys, their synthesis and use as thromobolytic agent” (Guangzhou Bai Yun Shan Pharmaceutical Co., Ltd., priority 2003, dated 2006).
Ends that are not written are not given here.

Experiments:
[1] = test system: rabbit euglobulin fraction; experiment: In vitro euglobulin clot lysis time (ECLT); type: biochemical; conditions: dosage differs per compound (1.3-6.7 μg; UK 5 IU); 96 well microtiter plate; n = 6; NS control 200.01 ± 15.26
Method: The rabbit euglobulin fraction was prepared according to the literature^[6]. Plasma diluted […] in distilled water was precipitated at pH 5.7 with acetic acid (0.25%). After 30 min at 4° C. the suspension was centrifuged at 2000 g for 15 min and the precipitate was resuspended to the initial plasma volume with 50 mM barbital buffer (pH 7.8, contained 1.66 mM of CaCl2, 0.68 mM of MgCl2 and 93.96 mM of NaCl). Euglobulin clot lysis time (ECLT) of the tested pseudopeptide was measured using a 96 well microtiter plate^[7] and the data are listed in Table 2.

fibrin plate = experiment: In vitro fibrinolytic lysis on fibrin plate (fibrinogen-agarose); type: biochemical, rabbit; conditions: dosage per well differs per compound (0.8-2.2 μg; UK 5 IU); n = 6; NS control 21.01 ± 9.26
Method: The plates were prepared by mixing equal volumes of 0.3% rabbit fibrinogen and 0.95% agarose solutions, both dissolved in 50 mM of barbital buffer (pH 7.8, contained 1.66 mM of CaCl2, 0.68 mM of MgCl2 and 93.96 mM of NaCl)^[6]. The fibrinogen-agarose mixture was coagulated with […] thrombin (100 IU: ml) in the plastic dishes (its diameter is 90 mm and the depth of the fibrin plate is 1 mm). After 30 min at 4° C. an adequate number of wells, 5 mm in diameter, were perforated. To determine fibrinolytic activity […] aliquots of the tested pseudopeptides were added to each well, the plate was incubated, and areas of lysis were quantified as described for the regular fibrin plates.

thrombus = experiment: In vivo thrombolytic activity, thrombus on steel helix in extracorporeal circulation; conditions: male Wistar rats; injected; dose differs per compound (3.1-8.2 mg/kg; UK 20000 IU); blood circulated 90 min; n = 10; NS control 12.31 ± 2.57
Method: Male Wistar rats weighing 200–300 g (purchased from Animal Center of Peking University) were anesthetized with pentobarbital sodium (80.0 mg/kg, ip). The right carotid artery and left vein jugular of the animals were separated. To the glass tube filled with artery blood (1.0 ml) from the right carotid artery of the animal a stainless steel filament helix (15 circles; L, 15 mm; D, 1.0 mm) was put immediately. After 15 minutes the helix with thrombus was carefully taken out and weighted exactly, which was put into the middle polyethylene tube. The polyethylene tube was full with heparin sodium (50 IU/ml of NS) and one end was inserted into the left jugular vein. Heparin sodium was injected via the other end of the polyethylene tube as the anticoagulant, following which the tested pseudopeptide was injected. The blood was circulated through the polyethylene tube for 90 min, after which the helix was taken out and weighted accurately.

## 3S-1,2,3,4-tetrahydro-β-carboline-3-carboxyl-Ala-Arg-Pro-Ala-Lys-OH (ARPAK-OH; not fully specified (N-terminus); printed as 3S-1,2,3,4-tetrahydro-β-carboline-3-carboxyl-Ala-Arg-Pro-Ala-Lys-OH) [compound 11]
[1]
  Euglobulin clot lysis time, x ± SD: 204.01 ± 32.61 min
Fibrin plate
  Effect of the pseudopeptides on fibrin plate, areas of lysis, x ± SD: 24.10 ± 10.16 mm^2
thrombus
  The reduction of thrombolytic mass, x ± SD: 14.01 ± 2.61 mg

## 3S-1,2,3,4-tetrahydro-β-carboline-3-carboxyl-Ala-Arg-Pro-Ala-OH (ARPA-OH; not fully specified (N-terminus); printed as 3S-1,2,3,4-tetrahydro-β-carboline-3-carboxyl-Ala-Arg-Pro-Ala-OH) [compound 17]
[1]
  Euglobulin clot lysis time, x ± SD: 213.55 ± 30.47 min
Fibrin plate
  Effect of the pseudopeptides on fibrin plate, areas of lysis, x ± SD: 23.44 ± 10.18 mm^2
thrombus
  The reduction of thrombolytic mass, x ± SD: 13.55 ± 2.47 mg

## 3S-1,2,3,4-tetrahydro-β-carboline-3-carboxyl-Ala-Arg-Pro-OH [compound 18]
[1]
  Euglobulin clot lysis time, x ± SD: 203.66 ± 30.44 min
Fibrin plate
  Effect of the pseudopeptides on fibrin plate, areas of lysis, x ± SD: 23.88 ± 10.04 mm^2
thrombus
  The reduction of thrombolytic mass, x ± SD: 13.66 ± 2.44 mg

## 3S-1,2,3,4-tetrahydro-β-carboline-3-carboxyl-Arg-Arg-Pro-Ala-Lys-OH (RRPAK-OH; not fully specified (N-terminus); printed as 3S-1,2,3,4-tetrahydro-β-carboline-3-carboxyl-Arg-Arg-Pro-Ala-Lys-OH) [compound 26]
[1]
  Euglobulin clot lysis time, x ± SD: 214.80 ± 32.96 min
Fibrin plate
  Effect of the pseudopeptides on fibrin plate, areas of lysis, x ± SD: 24.00 ± 12.01 mm^2
thrombus
  The reduction of thrombolytic mass, x ± SD: 14.80 ± 2.96 mg

## 3S-1,2,3,4-tetrahydro-β-carboline-3-carboxyl-Arg-Pro-Ala-Lys-OH (RPAK-OH; not fully specified (N-terminus); printed as 3S-1,2,3,4-tetrahydro-β-carboline-3-carboxyl-Arg-Pro-Ala-Lys-OH) [compound 19]
[1]
  Euglobulin clot lysis time, x ± SD: 213.56 ± 29.95 min
Fibrin plate
  Effect of the pseudopeptides on fibrin plate, areas of lysis, x ± SD: 20.33 ± 9.28 mm^2
thrombus
  The reduction of thrombolytic mass, x ± SD: 13.56 ± 2.45 mg

## 3S-1,2,3,4-tetrahydro-β-carboline-3-carboxyl-Asn-Arg-Pro-Ala-Lys-OH (NRPAK-OH; not fully specified (N-terminus); printed as 3S-1,2,3,4-tetrahydro-β-carboline-3-carboxyl-Asn-Arg-Pro-Ala-Lys-OH) [compound 15]
[1]
  Euglobulin clot lysis time, x ± SD: 213.12 ± 29.47 min
Fibrin plate
  Effect of the pseudopeptides on fibrin plate, areas of lysis, x ± SD: 23.21 ± 9.74 mm^2
thrombus
  The reduction of thrombolytic mass, x ± SD: 13.12 ± 2.47 mg

## 3S-1,2,3,4-tetrahydro-β-carboline-3-carboxyl-Gln-Arg-Pro-Ala-Lys-OH (QRPAK-OH; not fully specified (N-terminus); printed as 3S-1,2,3,4-tetrahydro-β-carboline-3-carboxyl-Gln-Arg-Pro-Ala-Lys-OH) [compound 14]
[1]
  Euglobulin clot lysis time, x ± SD: 212.98 ± 28.42 min
Fibrin plate
  Effect of the pseudopeptides on fibrin plate, areas of lysis, x ± SD: 22.89 ± 10.02 mm^2
thrombus
  The reduction of thrombolytic mass, x ± SD: 12.98 ± 2.42 mg

## 3S-1,2,3,4-tetrahydro-β-carboline-3-carboxyl-Gly-Arg-Pro-Ala-Lys-OH (GRPAK-OH; not fully specified (N-terminus); printed as 3S-1,2,3,4-tetrahydro-β-carboline-3-carboxyl-Gly-Arg-Pro-Ala-Lys-OH) [compound 12]
[1]
  Euglobulin clot lysis time, x ± SD: 213.35 ± 29.47 min
Fibrin plate
  Effect of the pseudopeptides on fibrin plate, areas of lysis, x ± SD: 23.53 ± 9.74 mm^2
thrombus
  The reduction of thrombolytic mass, x ± SD: 13.35 ± 2.47 mg

## 3S-1,2,3,4-tetrahydro-β-carboline-3-carboxyl-Lys-Arg-Pro-Ala-Lys-OH (KRPAK-OH; not fully specified (N-terminus); printed as 3S-1,2,3,4-tetrahydro-β-carboline-3-carboxyl-Lys-Arg-Pro-Ala-Lys-OH) [compound 13]
[1]
  Euglobulin clot lysis time, x ± SD: 214.11 ± 32.67 min
Fibrin plate
  Effect of the pseudopeptides on fibrin plate, areas of lysis, x ± SD: 24.01 ± 10.05 mm^2
thrombus
  The reduction of thrombolytic mass, x ± SD: 14.11 ± 2.67 mg
